Test results: US20230393140A1, “BINDING ASSAYS INVOLVING A PLURALITY OF SYNTHETIC COMPOUNDS, TARGETS, AND COUNTER TARGETS” (SRI International, priority 2020, published 2023)
Numbered stars: 1 amine (or outer) side, 2 acyl side, 3 side chain; on linkers, the order of the positions; unused ones are H or OH. Square brackets hold non-standard residues; d marks the D form. Peptide text beside a SMILES is read from it. * marks the point of attachment. 5FAM = O=C1OC2(c3ccc(O)cc3Oc3cc(O)ccc32)c2ccc(C(=O)*)cc21; NHCH2C6H4(4-CH2CONH2) = NC(=O)Cc1ccc(CN*)cc1; X1 = O=C(Cc1ccc(CN[*:1])cc1)[*:2]

Assays:
ASGPR = biological target: T1, ASGPR (Homo sapiens, UniProt P07306); test: MST binding affinity of resynthesized NNP hits to ASGPR; details: read-out: KD (nM) [95% conf. int]; MST; NNP1 library hit; target ASGPR; one-site binding model
T1 construct: purchased R&D Systems, Inc. 4394-AS
T1 sequence (P07306 1-291): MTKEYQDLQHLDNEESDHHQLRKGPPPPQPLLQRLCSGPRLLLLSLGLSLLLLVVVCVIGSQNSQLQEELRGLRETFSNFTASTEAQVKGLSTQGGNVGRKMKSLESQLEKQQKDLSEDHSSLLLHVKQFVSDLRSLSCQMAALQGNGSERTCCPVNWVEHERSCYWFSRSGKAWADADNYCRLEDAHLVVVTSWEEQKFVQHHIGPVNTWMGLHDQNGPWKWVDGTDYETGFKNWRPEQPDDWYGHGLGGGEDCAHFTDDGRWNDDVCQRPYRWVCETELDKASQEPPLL
Procedure: (§1) Hit binding affinity to various targets were determined using Microscale Thermophoresis (MST). MST experiments were performed on a Monolith NT.115pico (NanoTemper Technologies GmbH, Munich, Germany). Measurements were performed at room temperature, in triplicate with incubation periods of 15, 30 and 45 minutes. […] Targets were labeled using Nanotemper Monolith 2nd Generation Protein Labeling Kits. RED-MALEIMIDE (Maleimide-647-dye) labeling kit was used for K-Ras and RED-NHS (NHS-647-dye) labeling kit was used for IL-6, IL-6R, TNFα and ASGPR. The buffer for the ASGPR contained 20 mM HEPES pH 7.4, 150 mM NaCl, 10 mM MgCl2, 2 mM CaCl2, 0.05% Pluronic F-127, and 1 mM DTT; for IL-6 contained 20 mM HEPES pH 7.4, 150 mM KCl, 10 mM MgCl2, and 0.1% Pluronic F-127; for the soluble IL-6 receptor 20 mM HEPES pH 7.4, 150 mM NaCl, 10 mM MgCl2, and 0.05% Tween-20; for K-Ras 20 mM HEPES pH 7.4, 150 mM NaCl, 10 mM MgCl2, 0.05% Tween-20 and 1 mM DTT; for TNFα 10 mM HEPES pH 7.4, 150 mM NaCl, 10 mM MgCl2, 0.05% Polysorbate-20. Triplicate data was analyzed using MO.AffinityAnalysis software (NanoTemper Technologies GmbH).

IL-6R = biological target: T2, IL-6R (Homo sapiens, UniProt P08887); test: MST binding affinity of resynthesized NNP hits to IL-6R; details: read-out: MST (microscale thermophoresis) KD (nM) [95% conf. int]; IL-6R; ester versus amide amino acid-PAM bond polymers, library NNP2
T2 construct: purchased Creative Biomart IL6R-584H
T2 sequence (P08887 20-355 limits assumed): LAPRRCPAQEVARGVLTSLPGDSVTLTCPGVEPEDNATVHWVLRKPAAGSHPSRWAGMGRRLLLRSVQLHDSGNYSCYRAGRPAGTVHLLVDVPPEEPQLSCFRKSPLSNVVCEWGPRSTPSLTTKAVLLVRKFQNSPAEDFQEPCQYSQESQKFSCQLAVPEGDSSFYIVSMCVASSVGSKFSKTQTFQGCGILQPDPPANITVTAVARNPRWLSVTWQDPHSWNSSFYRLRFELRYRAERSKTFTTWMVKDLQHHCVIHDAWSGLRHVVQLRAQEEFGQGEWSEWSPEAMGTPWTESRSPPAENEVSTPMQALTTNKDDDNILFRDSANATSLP
Procedure: as §1

| SMILES | Kd (ASGPR) [nM] | Kd (IL-6R) [nM] |
| --- | --- | --- |
| CC(C)C[C@H](NC(=O)[C@@H](CCCNC(=N)N)NC(=O)[C@@H](CCCCN)NC(=O)[C@@H](CCC(=O)O)NC(=O)[C@@H](Cc1ccccc1)NC(=O)Cc1ccc(CNC(=O)[C@H](Cc2ccccc2)NC(=O)[C@@H](CO)NC(=O)[C@@H](CCC(=O)O)NC(=O)[C@H]2CCCN2C(=O)[C@@H](CC(C)C)NC(=O)c2ccc3c(c2)C(=O)OC32c3ccc(O)cc3Oc3cc(O)ccc32)cc1)C(=O)NCc1ccc(CC(=O)NCC(=O)N2CCC[C@@H]2C(=O)N[C@H](CCCNC(=N)N)C(=O)N[C@H](CO)C(=O)N[C@@H](Cc2ccccc2)C(=O)NCc2ccc(CC(=O)N3CCC[C@@H]3C(=O)N[C@H](CCCCN)C(=O)N[C@H](Cc3ccc(O)cc3)C(=O)N[C@H](CCCNC(=N)N)C(=O)N[C@@H](Cc3ccccc3)C(=O)NCc3ccc(CC(=O)N[C@H](CCCNC(=N)N)C(=O)N[C@H](Cc4ccccc4)C(=O)N4CCC[C@@H]4C(=O)N[C@@H](C(=O)NCC(=O)NCc4ccc(CC(=O)N[C@H](CC(C)C)C(=O)N5CCC[C@@H]5C(=O)N[C@H](CCCNC(=N)N)C(=O)N[C@@H](C(=O)NCC(=O)NCc5ccc(CC(N)=O)cc5)[C@H](C)O)cc4)C(C)C)cc3)cc2)cc1 [ASGPR-9-3] (5FAM-[dL][dP][dE][dS]F[X1][dF][dE][dK][dR]L[X1]G[dP][dR][dS]F[X1][dP][dK][dY][dR]F[X1][dR][dF][dP][dV]G[X1][dL][dP][dR][dT]G-{NHCH2C6H4(4-CH2CONH2)}) | 330 |  |
| CC(C)C[C@H](NC(=O)[C@@H](CCCNC(=N)N)NC(=O)[C@@H](CCCCN)NC(=O)[C@@H](CCC(=O)O)NC(=O)[C@@H](Cc1ccccc1)NC(=O)Cc1ccc(CNC(=O)[C@H](Cc2ccccc2)NC(=O)[C@@H](CO)NC(=O)[C@@H](CCC(=O)O)NC(=O)[C@H]2CCCN2C(=O)[C@@H](CC(C)C)NC(=O)c2ccc3c(c2)C(=O)OC32c3ccc(O)cc3Oc3cc(O)ccc32)cc1)C(=O)NCc1ccc(CC(=O)N[C@H](Cc2c[nH]cn2)C(=O)N[C@H](CO)C(=O)N2CCC[C@@H]2C(=O)N[C@H](CCCNC(=N)N)C(=O)N[C@H](C(=O)NCc2ccc(CC(=O)N3CCC[C@@H]3C(=O)N[C@H](CCCCN)C(=O)N[C@H](Cc3ccc(O)cc3)C(=O)N[C@H](CCCNC(=N)N)C(=O)N[C@@H](Cc3ccccc3)C(=O)NCc3ccc(CC(=O)N[C@H](CCCNC(=N)N)C(=O)N[C@H](Cc4ccccc4)C(=O)N4CCC[C@@H]4C(=O)N[C@@H](C(=O)NCC(=O)NCc4ccc(CC(=O)N[C@H](CC(C)C)C(=O)N5CCC[C@@H]5C(=O)N[C@H](CCCNC(=N)N)C(=O)N[C@@H](C(=O)NCC(=O)NCc5ccc(CC(N)=O)cc5)[C@H](C)O)cc4)C(C)C)cc3)cc2)C(C)C)cc1 [ASGPR-9-7] (5FAM-[dL][dP][dE][dS]F[X1][dF][dE][dK][dR]L[X1][dH][dS][dP][dR]V[X1][dP][dK][dY][dR]F[X1][dR][dF][dP][dV]G[X1][dL][dP][dR][dT]G-{NHCH2C6H4(4-CH2CONH2)}) | 150 |  |
| CC(C)C[C@H](NC(=O)[C@@H](Cc1c[nH]cn1)NC(=O)[C@@H](CC(C)C)NC(=O)[C@H]1CCCN1C(=O)[C@@H](CC(N)=O)NC(=O)Cc1ccc(CNC(=O)[C@H](Cc2ccccc2)NC(=O)[C@@H](Cc2c[nH]cn2)NC(=O)[C@@H](CCCNC(=N)N)NC(=O)[C@@H](CC(N)=O)NC(=O)[C@@H](Cc2ccc(O)cc2)NC(=O)Cc2ccc(CNC(=O)[C@H](CC(C)C)NC(=O)[C@@H](CCCNC(=N)N)NC(=O)[C@@H](CCCCN)NC(=O)[C@@H](CCC(=O)O)NC(=O)[C@@H](Cc3ccccc3)NC(=O)Cc3ccc(CNC(=O)[C@H](Cc4ccccc4)NC(=O)[C@@H](CO)NC(=O)[C@@H](CCC(=O)O)NC(=O)[C@H]4CCCN4C(=O)[C@@H](CC(C)C)NC(=O)c4ccc5c(c4)C(=O)OC54c5ccc(O)cc5Oc5cc(O)ccc54)cc3)cc2)cc1)C(=O)NCc1ccc(CC(=O)N[C@H](CCCNC(=N)N)C(=O)N[C@H](Cc2ccccc2)C(=O)N2CCC[C@@H]2C(=O)N[C@@H](C(=O)NCC(=O)NCc2ccc(CC(=O)N[C@H](CC(C)C)C(=O)N3CCC[C@@H]3C(=O)N[C@H](CCCNC(=N)N)C(=O)N[C@@H](C(=O)NCC(=O)NCc3ccc(CC(N)=O)cc3)[C@H](C)O)cc2)C(C)C)cc1 [ASGPR-9-10] (5FAM-[dL][dP][dE][dS]F[X1][dF][dE][dK][dR]L[X1][dY][dN][dR][dH]F[X1][dN][dP][dL][dH]L[X1][dR][dF][dP][dV]G[X1][dL][dP][dR][dT]G-{NHCH2C6H4(4-CH2CONH2)}) | 97 |  |
| CC(C)C[C@H](NC(=O)[C@@H](Cc1c[nH]c2ccccc12)NC(=O)[C@@H](CCC(=O)O)NC(=O)[C@@H](CO)NC(=O)[C@@H](CCCNC(=N)N)NC(=O)Cc1ccc(CNC(=O)[C@H](Cc2ccccc2)NC(=O)[C@@H](Cc2c[nH]cn2)NC(=O)[C@@H](CCCNC(=N)N)NC(=O)[C@@H](CC(N)=O)NC(=O)[C@@H](Cc2ccc(O)cc2)NC(=O)Cc2ccc(CNC(=O)[C@H](CC(C)C)NC(=O)[C@@H](CCCNC(=N)N)NC(=O)[C@@H](CCCCN)NC(=O)[C@@H](CCC(=O)O)NC(=O)[C@@H](Cc3ccccc3)NC(=O)Cc3ccc(CNC(=O)[C@H](Cc4ccccc4)NC(=O)[C@@H](CO)NC(=O)[C@@H](CCC(=O)O)NC(=O)[C@H]4CCCN4C(=O)[C@@H](CC(C)C)NC(=O)c4ccc5c(c4)C(=O)OC54c5ccc(O)cc5Oc5cc(O)ccc54)cc3)cc2)cc1)C(=O)NCc1ccc(CC(=O)N[C@H](CCCNC(=N)N)C(=O)N[C@H](Cc2ccccc2)C(=O)N2CCC[C@@H]2C(=O)N[C@@H](C(=O)NCC(=O)NCc2ccc(CC(=O)N[C@H](CC(C)C)C(=O)N3CCC[C@@H]3C(=O)N[C@H](CCCNC(=N)N)C(=O)N[C@@H](C(=O)NCC(=O)NCc3ccc(CC(N)=O)cc3)[C@H](C)O)cc2)C(C)C)cc1 [ASGPR-9-11] (5FAM-[dL][dP][dE][dS]F[X1][dF][dE][dK][dR]L[X1][dY][dN][dR][dH]F[X1][dR][dS][dE][dW]L[X1][dR][dF][dP][dV]G[X1][dL][dP][dR][dT]G-{NHCH2C6H4(4-CH2CONH2)}) | 0.22 |  |
| CC(C)C[C@H](NC(=O)[C@@H](CCCNC(=N)N)NC(=O)[C@@H](C)NC(=O)Cc1ccc(COC(=O)[C@H](Cc2ccccc2)NC(=O)[C@@H](CCCNC(=N)N)NC(=O)[C@@H](CC(N)=O)NC(=O)Cc2ccc(COC(=O)[C@H](Cc3ccccc3)NC(=O)[C@@H](CCCCN)NC(=O)[C@@H](C)NC(=O)Cc3ccc(COC(=O)[C@H](CC(C)C)NC(=O)[C@@H](CCC(=O)O)NC(=O)[C@@H](CCCCN)NC(=O)Cc4ccc(COC(=O)[C@@H](NC(=O)[C@@H](CCC(=O)O)NC(=O)[C@@H](Cc5ccccc5)NC(=O)Cc5ccc(COC(=O)[C@H](CC(C)C)NC(=O)[C@@H](CCCNC(=N)N)NC(=O)[C@@H](CC(C)C)NC(=O)Cc6ccc(COC(=O)[C@H](Cc7ccccc7)NC(=O)[C@@H](Cc7c[nH]c8ccccc78)NC(=O)[C@@H](CCCNC(=N)N)NC(=O)c7ccc8c(c7)C(=O)OC87c8ccc(O)cc8Oc8cc(O)ccc87)cc6)cc5)C(C)C)cc4)cc3)cc2)cc1)C(=O)OCc1ccc(CC(=O)N[C@H](Cc2c[nH]c3ccccc23)C(=O)N[C@H](CCCCN)C(=O)N[C@@H](CC(C)C)C(=O)OCc2ccc(CC(=O)N[C@H](C)C(=O)N[C@@H](C(=O)N[C@@H](CC(C)C)C(=O)OCc3ccc(CC(N)=O)cc3)C(C)C)cc2)cc1 [IL6R-93-13] |  | 130 |
